{"source": "patent US20060216726A1", "about": "“Method for optimizing thiopurine efficacy and toxicity using mass spectrometry” (Prometheus Laboratories Inc., priority 2004, published 2006)", "origin": "cited, not measured here", "settings": "patients with inflammatory bowel disease, azathioprine", "data": [{"substance": "6-thioguanine nucleotide [6-TGN]", "values": [{"measurement": "Therapeutic threshold associated with efficacy", "value": "> 235", "unit": "pmol/8×10^8 cells"}]}]}
